Data published in patent publication US9168247B2, “Beta carboline derivatives useful in the treatment of proliferative disorders” (FACULTES UNIVERSITAIRES NOTRE DAME DE LA PAIX, priority 2010, dated 2015).
Where two headings read alike, the source gives them in different places.

Assays:
[1] = system: OE21 oesophageal cancer cells; experiment: MTT test, overall cell growth, OE21; assay type: cell-based, human
Procedure: (§1) MTT tests were performed in order to rapidly, i.e., within 5 days, measure the effect of the present compounds on the overall cell growth. The test measured the number of metabolically active living cells that were able to transform the yellow product 3-(4,5-dimethylthiazol-2-yl)-2,5-diphenyl tetrazolium bromide (herein referred as MTT) into the blue product formazan dye by mitochondrial reduction. The amount of formazan obtained at the end of the experiment, measured by means of a spectrophotometer, is directly proportional to the number of living cells. Optical density determination thus enabled a quantitative measurement of the effect of the investigated compounds as compared to the control condition (untreated cells) and/or to other reference compounds.
(§2) Five human cancer cell lines set forth in Table 3 were used in the MTT tests. These cancer cell lines cover two histological cancer types including glioma (Hs683, T98G, U373), and oesophageal (OE21, OE33) cancers. The U373 cell line is apoptosis-resistant but autophagy-sensitive.
(§3) To perform the assay, cells were allowed to grow in 96-well micro-wells with a flat bottom with an amount of 100 μl of cell suspension per well with 5,000 to 8,000 cells/well depending on the cell type used. Each cell line was seeded in its appropriate culture medium.
(§4) The detailed experimental procedure was as follows: after a 24-hour period of incubation at 37° C., the culture medium was replaced by 100 μl of fresh medium in which the tested compound was previously dissolved, at the following molar concentrations: 1×10^−8 M, 5×10^−8 M, 1×10^−7 M, 5×10^−7 M, 1×10^−6 M, 5×10^−6 M, 1×10^−5 M, 5×10^−5 M and 1×10^−4 M. Each experiment was performed in sestuplicate (6 times).
(§5) After 72 hours of incubation at 37° C. with (experimental conditions) or without (control condition) the compound to be tested, the medium was replaced by 100 μl MTT dissolved in RPMI (1640 without phenol red) at a concentration of 0.5 or 1 mg/ml. The micro-wells were subsequently incubated during 3 hours and a half at 37° C. and centrifuged at 1300 rpm during 10 minutes. MTT was removed and formazan crystals formed were dissolved in […]. The micro-wells were shaken for 5 minutes and read on a spectrophotometer at wavelengths of 570 nm (maximal formazan absorbance).
(§6) For each experimental condition, the mean optical density was calculated, allowing the determination of the percentage of remaining living cells in comparison to the control.
(§7) The origin of all the cell lines we used, along with their biological characteristics, and the validation procedures of the MTT colorimetric assay as employed here are fully detailed in Van Quaquebeke et al., 2005, J Med Chem 48:849-856; Ingrassia et al., 2009, J Med Chem 52:1100-1114; Mathieu et al., 2009, J Cell Mol Med, Feb. 20, 2009.

[2] = system: OE33 oesophageal cancer cells; experiment: MTT test, overall cell growth, OE33; assay type: cell-based, human
Procedure: as §1, §2, §3, §4, §5, §6, §7

U373 glioma cells = experiment: MTT test, overall cell growth, U373; assay type: cell-based, human; conditions: 72 hours of incubation
Procedure: as §1, §2, §3, §4, §5, §6, §7

Hs683 glioma cells = experiment: MTT test, overall cell growth, Hs683; assay type: cell-based, human
Procedure: as §1, §2, §3, §4, §5, §6, §7

T98G glioma cells = experiment: MTT test, overall cell growth, T98G; assay type: cell-based, human; conditions: 72 hours of incubation
Procedure: as §1, §2, §3, §4, §5, §6, §7

[3] = system: human cancer cell lines (U373, T98G, Hs683, OE21, OE33); experiment: MTT test, mean over the cancer cell lines; assay type: cell-based
Procedure: as §1, §2, §3, §4, §5, §6, §7

U373 cells = experiment: Cellular imaging (videomicroscopy) of cultured U373 cells: antiproliferative class and global growth ratio; assay type: cell-based, human; design: key to Anti proliferative class / anti-proliferative class-GGR: class I: actually cytostatic for 3 days (<10% of cell death at the 3rd day); class II: cyctostatic but becomes cytotoxic with <10% cell death on the 2nd day, and >20% of cell death on the 3rd day; class III: cytostatic but rapidly becomes cytotoxic with <10% cell death on the 1st day, >20% of cell death on the 2nd day and >50% of cell death on the 3rd day; class IV: cytotoxic (>50% of cell death on the first day); conditions: for global growth ratio (GGR): GG treated cells/GG control cells, 72 h after drug addition, drug at its IC50 (MTT-test determined); for Anti proliferative class: cellular imaging of cultured U373 cells over three consecutive days
Source text: The effects of the di- and tri-substituted beta-carboline derivatives as described herein can also be determined on cell proliferation, migration and morphology by means of a cellular imaging approach (Debeir et al., Cytometry 60:29-40, 2004; Debeir et al., IEEE Trans Med Imaging 24:697-711, 2005) either in, e.g., the human U373-MG glioma cell line, which is apoptosis-resistant but autophagy-sensitive (Lefranc F et al., Neurosurgery 2008) or in, e.g., the human A549 non-small-cell-lung cancer cell line, which is apoptosis-resistant and autophagy-resistant (Mijatovic T et al., Neoplasia 2006, May; 8(5):402-12).
[…] The experiments are conducted in quadruplicates.
The behaviour of the cells, in terms of morphology, growth and death are thus investigated. The effect on the overall growth is measured by counting the number of cells on the first (0 h) and the last image (72 h) of each film. The global growth ratio (GGR) is then deduced by dividing the number of cells on the last image by the number of cells on the first image. The ratio GGRtreated cells/GGRcontrol cells is further calculated thereby providing a value that describes the effect of compounds of the present invention on the overall cell growth.
The methodology is fully described and validated in Debeir et al., 2008, Exp Cell Res 314:2985-2998 and Mathieu et al., 2009, J Cell Mol Med, Feb. 20, 2009.

[4] = Homo sapiens, OE21, 72 hours of incubation
[5] = Homo sapiens, OE33, 72 hours of incubation
[6] = Homo sapiens, Hs 683, 72 hours of incubation
[7] = Homo sapiens, mean over the cancer cell lines, MTT test, read-out: IC50 Mean ± SEM
[8] = mean over the cancer cell lines, MTT test, read-out: IC50 Mean ± SEM

| Compound | IC50 [1, 4] | IC50 [2, 5] | IC50 (U373 glioma cells; Homo sapiens, U373 MG) | IC50 (Hs683 glioma cells; [6]) | IC50 (T98G glioma cells; Homo sapiens, T98G) | IC50 [3, 7] | global growth ratio (GGR) (U373 cells) | Anti proliferative class (U373 cells) | IC50 ([3]; Homo sapiens, Table 4, mean over cell lines, read-out: IC50 μM growth inhibition (MTT test)) | IC50 ([1]; 72 hours of incubation) | IC50 ([2]; 72 hours of incubation) | IC50 (U373 glioma cells) | IC50 (Hs683 glioma cells; 72 hours of incubation) | IC50 (T98G glioma cells) | IC50 [3, 8] |
| --- | --- | --- | --- | --- | --- | --- | --- | --- | --- | --- | --- | --- | --- | --- | --- |
| Cc1nccc2c3ccc(OCc4cccc(F)c4)cc3n(Cc3cccc(F)c3)c12 [CV5, 1-methyl-7-(3-fluorobenzyloxy)-9-(3-fluorobenzyl)-β-carboline] | 7.9 ± 0.2 µM | 16 ± 2 µM | 0.4 ± 0.06 µM | 17.5 ± 0.9 µM | 27 ± 1 µM | 14 ± 5 µM | 0.9 | I (class I: actually cytostatic for 3 days (<10% of cell death at the 3rd day)) |  |  |  |  |  |  |  |
| Cc1nccc2c3ccc(OCc4ccc(F)cc4)cc3n(Cc3ccc(F)cc3)c12 [CV11, 1-methyl-7-(4-fluorobenzyloxy)-9-(4-fluorobenzyl)-β-carboline] | 15 ± 2 µM | 25 ± 2 µM | 30 ± 1 µM | 17 ± 2 µM | 14 ± 2 µM | 20 ± 3 µM | 0.2 | III |  |  |  |  |  |  |  |
| Cc1nccc2c3ccc(OCC4CCCCC4)cc3n(CC3CCCCC3)c12 [CV12, 1-methyl-7-cyclohexylmethyloxy-9-cyclohexylmethyl-β-carboline] | 17 ± 2 µM | 15 ± 3 µM | 30.7 ± 0.8 µM | 30 ± 2 µM | 32 ± 1 µM | 25 ± 4 µM | 0.2 | II | 25 µM |  |  |  |  |  |  |
| Cc1c2c(cc[n+]1Cc1ccccc1)c1ccc(OCc3cccc(F)c3)cc1n2Cc1cccc(F)c1.[Br-] [CV16, 1-methyl-2-benzyl-7-(3-fluorobenzyl)oxy-9-(3-fluorobenzyl)43-carbolin-2-ium bromide] |  |  |  |  |  |  | 0.4 | I (class I: actually cytostatic for 3 days (<10% of cell death at the 3rd day)) |  | 0.4 ± 0.1 µM | 2.9 ± 0.1 µM | 0.82 ± 0.08 µM | 2.8 ± 0.4 µM | 0.97 ± 0.02 µM | 1.6 ± 0.5 µM |
| Cc1c2c(cc[n+]1Cc1ccccc1F)c1ccc(OCc3ccc(F)cc3)cc1n2Cc1ccc(F)cc1.[Br-] [CV25, 1-methyl-2-(2-fluorobenzyl-7-(4-fluorobenzyl)oxy-9-(4-fluorobenzyl)-β-carbolin-2-ium bromide] |  |  |  |  |  |  |  |  |  | 1.6 ± 0.3 µM | 1.6 ± 0.2 µM | 0.46 ± 0.08 µM | 1.2 ± 0.4 µM | 0.43 ± 0.02 µM | 1.1 ± 0.3 µM |
| Cc1c2c(cc[n+]1Cc1ccccc1F)c1ccc(OCc3ccc(F)cc3)cc1n2Cc1ccc(F)cc1.[Br-] [CV25] |  |  |  |  |  |  | 0.4 | I (class I: actually cytostatic for 3 days (<10% of cell death at the 3rd day)) |  |  |  |  |  |  |  |
| Cc1c2c(cc[n+]1CC(=O)c1ccccc1)c1ccc(OCc3ccccc3)cc1n2Cc1ccccc1 [CV52] |  |  |  |  |  |  |  |  |  | 17 ± 2 µM |  | 22 ± 2 µM | 26 ± 3 µM | 19 ± 2 µM | 21 ± 2 µM |
| CCCCCC[n+]1ccc2c3ccc(OCc4ccccc4)cc3n(Cc3ccccc3)c2c1C [CV53, 1-methyl-2-hexyl-7-benzyloxy-9-benzyl-β-carbolin-2-ium bromide] | 1.9 ± 0.3 µM |  | 0.66 ± 0.09 µM | 0.6 ± 0.1 µM | 3.1 ± 0.5 µM | 1.5 ± 0.6 µM |  |  |  |  |  |  |  |  |  |
| CCC[n+]1ccc2c3ccc(OCc4ccccc4)cc3n(Cc3ccccc3)c2c1C [CV56, 1-methyl-2-propyl-7-benzyloxy-9-benzyl-β-carbolin-2-ium bromide] | 3.4 ± 0.8 µM |  | 2.5 ± 0.3 µM | 0.6 ± 0.1 µM | 11 ± 1 µM | 5 ± 2 µM |  |  |  |  |  |  |  |  |  |
| Cc1c2c(cc[n+]1CCO)c1ccc(OCc3ccccc3)cc1n2Cc1ccccc1 [PL1] |  |  |  |  |  |  |  |  |  | 25 ± 4 µM |  | 9 ± 2 µM | 31 ± 3 µM | 61 ± 6 µM | 32 ± 11 µM |
| Cc1c2c(cc[n+]1CCC(C)C)c1ccc(OCc3ccccc3)cc1n2Cc1ccccc1 [PL2, 1-methyl-2-(3-methylbutyl)-7-benzyloxy-9-benzyl-β-carbolin-2-ium bromide] | 0.5 ± 0.09 µM |  | 0.39 ± 0.01 µM | 0.37 ± 0.03 µM | 1.2 ± 0.2 µM | 0.6 ± 0.2 µM |  |  |  |  |  |  |  |  |  |
| Cc1c2c(cc[n+]1CCc1ccccc1)c1ccc(OCc3ccccc3)cc1n2Cc1ccccc1 [PL4, 1-methyl-2-phenethyl-7-benzyloxy-9-benzyl-β-carbolin-2-ium bromide] | 2.4 ± 0.3 µM |  | 2 ± 0.3 µM | 2.31 ± 0.09 µM | 2.4 ± 0.4 µM | 2.3 ± 0.1 µM |  |  |  |  |  |  |  |  |  |
| Cc1c2c(cc[n+]1CCO)c1ccc(OCCC(C)C)cc1n2CCC(C)C [PL11] |  |  |  |  |  |  |  |  |  | 7.6 ± 0.3 µM |  | 2.5 ± 0.3 µM | 4 ± 0.3 µM | 2.9 ± 0.4 µM | 4 ± 1 µM |
| Cc1c2c(cc[n+]1CCC(C)C)c1ccc(OCCC(C)C)cc1n2CCC(C)C [PL12] |  |  |  |  |  |  |  |  |  | 0.48 ± 0.04 µM |  | 0.22 ± 0.03 µM | 0.26 ± 0.01 µM | 0.41 ± 0.01 µM | 0.34 ± 0.06 µM |
| Cc1c2c(cc[n+]1Cc1ccccc1)c1ccc(OCCC(C)C)cc1n2CCC(C)C [PL13] |  |  |  |  |  |  |  |  |  | 3.7 ± 0.1 µM |  | 3.4 ± 0.1 µM | 3.1 ± 0.1 µM | 3.5 ± 0.1 µM | 3.4 ± 0.1 µM |
| COc1ccc2c(c1)[nH]c1c(C)nccc12 [harmine, reference compound] | 32 ± 2 µM | 18 ± 1 µM | 32 ± 2 µM |  | 24 ± 2 µM | 28 ± 3 µM |  | I (class I: actually cytostatic for 3 days (<10% of cell death at the 3rd day)) |  |  |  |  |  |  |  |
